Data as given in US6602867B1, “Triazole compounds with dopamine-D3-receptor affinity” (Abbott Laboratories, priority 1999, dated 2003).
Structures can show the parent of a compound that is named as a salt.

Columns and labels:
human D3-receptor = molecular target: T1, human D3-receptor (Homo sapiens, UniProt P35462); experiment: D3 binding test (125iodosulpiride, membranes of CCL 1,3 mouse fibroblasts); conditions: negative logarithm of the affinity constant for the D3 receptor; read-out: pKi (D3) (converted)
T1 construct: host or cells: CCL 1,3 mouse fibroblasts
T1 sequence (P35462 whole entry): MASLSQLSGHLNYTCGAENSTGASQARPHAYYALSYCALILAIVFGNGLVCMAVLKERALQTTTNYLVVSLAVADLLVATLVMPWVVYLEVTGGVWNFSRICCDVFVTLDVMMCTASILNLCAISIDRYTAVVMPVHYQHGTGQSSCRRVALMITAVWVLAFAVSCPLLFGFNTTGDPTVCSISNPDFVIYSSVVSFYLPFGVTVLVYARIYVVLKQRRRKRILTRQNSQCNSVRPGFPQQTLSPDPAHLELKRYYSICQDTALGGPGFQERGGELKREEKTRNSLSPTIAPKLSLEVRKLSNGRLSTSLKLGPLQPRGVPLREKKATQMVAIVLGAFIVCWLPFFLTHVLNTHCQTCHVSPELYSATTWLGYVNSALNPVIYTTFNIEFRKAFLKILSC
Protocol: Cloned human D3-receptor-expressing CCL 1,3 mouse fibroblasts, obtainable from Res. Biochemicals Internat. One Strathmore Rd., Natick, Mass. 01760-2418 USA, were used for the binding studies.
The D3-expressing cells were multiplied in RPMI-1640 containing 10% fetal calf serum (GIBCO No. 041-32400 N); 100 U of penicillin/ml and 0.2% streptomycin (GIBO BRL, Gaithersburg, Md., USA). After 48 h, the cells were washed with PBS and incubated for 5 min with 0.05% trypsin-containing PBS. After that, the solution was neutralized with medium and the cells were collected by centrifuging at 300 g. In order to lyse the cells, the pellet was washed briefly with lysis buffer (5 mM Tris-HCl, pH 7.4, containing 10% glycerol) and after that incubated, at 4° C. for 30 min, at a concentration of 10^7 cells/ml of lysis buffer. The cells were centrifuged at 200 g for 10 min and the pellet was stored in liquid nitrogen.
For the D3-receptor binding test, the membranes were suspended in incubation buffer (50 mM Tris-HCl, pH 7.4, containing 120 mM NaCl, 5 mM KCl, 2 mM CaCl2, 2 mM MgCl2, 10 μM quinolinol, 0.1% ascorbic acid and 0.1% BSA), at a concentration of approx. 10^6 cells/250 μl of test mixture, and incubated at 30° C. with 0.1 nM ^125iodosulpiride in the presence and absence of the test substance. The nonspecific binding was determined using 10^−6 M spiperone.
After 60 min, the free radioligand and the bound radioligand were separated by filtering through GF/B glass fiber filters (Whatman, England) on a Skatron cell harvester (Skatron, Lier, Norway), and the filters were washed with ice-cold Tris-HCl buffer, pH 7.4. The radioactivity which had collected on the filters was quantified using a Packard 2200 CA liquid scintillation counter.
The Ki values were determined by means of nonlinear regression analysis using the LIGAND program.

[1] = molecular target: T2, human dopamine D2A receptors (Homo sapiens, UniProt P14416); experiment: D2 binding test (125I-spiperone, HEK-293 cells); conditions: selectivity versus D2 receptor, Ki(D2)/Ki(D3)
T2 construct: expressed in transfected cells; host or cells: HEK-293 cells
T2 sequence (P14416 whole entry): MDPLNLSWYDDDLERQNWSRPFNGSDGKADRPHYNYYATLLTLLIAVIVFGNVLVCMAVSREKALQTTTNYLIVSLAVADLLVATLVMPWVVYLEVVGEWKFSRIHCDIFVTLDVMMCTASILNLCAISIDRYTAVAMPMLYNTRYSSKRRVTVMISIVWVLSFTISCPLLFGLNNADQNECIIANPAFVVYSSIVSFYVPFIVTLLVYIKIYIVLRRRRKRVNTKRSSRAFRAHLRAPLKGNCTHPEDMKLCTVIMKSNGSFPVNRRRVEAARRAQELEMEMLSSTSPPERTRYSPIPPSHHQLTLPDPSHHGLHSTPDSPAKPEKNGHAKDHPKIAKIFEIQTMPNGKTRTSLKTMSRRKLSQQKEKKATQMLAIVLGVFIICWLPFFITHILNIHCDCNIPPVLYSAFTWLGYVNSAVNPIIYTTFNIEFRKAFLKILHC
Protocol: All the media contained 100 units of penicillin […] and 100 μg/ml of streptomycin/ml. The cells were maintained at 37° C. in a moist atmosphere containing 5% CO2.
The cells were prepared for the binding studies by trypsinizing them (0.05% solution of trypsin) at room temperature for 3-5 minutes. After that, the cells were centrifuged at 250 g for 10 minutes and treated with lysis buffer (5 mM Tris-HCl, 10% glycerol, pH 7.4) at 4° C. for 30 minutes. After centrifuging at 250 g for 10 minutes, the residue was stored at −20° C. until used.
Low affinity state dopamine D2 receptor using ^125I-spiperone (81 TBq/mmol, Du Pont de Nemours, Dreieich)
The test mixtures (1 ml) consisted of 1×10^5 cells in incubation buffer (50 mM Tris, 120 mM NaCl, 5 mM KCl, 2 mM MgCl2 and 2 mM CaCl2, pH 7.4 with HCl) and […] ^125I-spiperone (total binding) or additionally 1 μM haloperidol (nonspecific binding) or test substance.
After the test mixtures had been incubated at 25° C. for 60 minutes, they were filtered through GM/B glass filters (Whatman, England) on a Skatron cell harvester (from Zinsser, Frankfurt), and the filters were washed with ice-cold 50 mM Tris-HCl buffer, pH 7.4. The radioactivity which had collected on the filters was quantified using a Packard 2200 CA liquid scintillation counter.
The results were evaluated as described in a).
The Ki values were determined by way of nonlinear regression analysis using the LIGAND program or by converting the IC50 values using the Cheng and Prusoff formula.

COc1ccc2c(c1)CCN(CCCSc1nnc(-c3ccc[nH]3)n1C)C2 [Example 2, 6-Methoxy-2-{3-[(4-methyl-5-pyrrol-2-yl-4H-1,2,4-triazol-3-yl)-sulfanyl]propyl}-1,2,3,4-tetrahydroisoquinoline]
melting point: 179 to 181 °C

Cl.Cn1c(CCCCN2CCc3ccc(C#N)cc3C2)nnc1-c1ccccc1
melting point: 175 °C

Cn1c(SCCCN2CCc3ccc(S(=O)(=O)N4CCCCC4)cc3C2)nnc1-c1ccccc1 [Example 4, 2-{3-[(4-Methyl-5-phenyl-4H-1,2,4-triazol-3-yl)sulfanyl]propyl}-7-(piperidin-1-ylsulfonyl)-1,2,3,4-tetrahydroisoquinoline]
Ki (human D3-receptor): 11 nM
Selectivity [1]: 67
melting point: 105 to 108 °C

CCN(CC)Cc1ccc2c(c1)CN(CCCSc1nnc(-c3ccccc3)n1C)CC2.Cl.Cl
melting point: 75 °C

Cn1c(SCCCN2CCc3ccc(S(=O)(=O)Nc4ccccc4)cc3C2)nnc1-c1cccnc1 [Example 25, 2-{3-[(4-Methyl-5-pyridin-3-yl-4H-1,2,4-triazol-3-yl)sulfanyl]-propyl}-N-phenyl-1,2,3,4-tetrahydroisoquinoline-7-sulfonamide]
melting point: 58 to 61 °C

Cn1cccc1-c1nnc(SCCCN2CCc3ccc(S(=O)(=O)N4CCCCC4)cc3C2)n1C [Example 35, 2-(3-{[4-Methyl-5-(1-methyl-1H-pyrrol-2-yl)-4H-1,2,4-triazol-3-yl]sulfanyl}propyl)-7-(piperidin-1-ylsulfonyl)-1,2,3,4-tetrahydroisoquinoline]
melting point: 96 to 100 °C

Cn1c(SCCCN2CCc3ccc(C#N)cc3C2)nnc1-c1ccccc1 [Example 7, 2-{3-[(4-Methyl-5-phenyl-4H-1,2,4-triazol-3-yl)sulfanyl]propyl}-1,2,3,4-tetrahydroisoquinoline-7-carbonitrile]
Ki (human D3-receptor): 4.27 nM
Selectivity [1]: 81
melting point: 116 to 118 °C

Cn1c(SCCCN2CCc3ccc(S(=O)(=O)NCc4ccccc4)cc3C2)nnc1-c1cccnc1 (as salt: HCl) [Example 10, N-Benzyl-2-{3-[(4-methyl-5-pyridin-3-yl-4H-1,2,4-triazol-3-yl)-sulfanyl]propyl}-1,2,3,4-tetrahydroisoquinoline-7-sulfonamide]
melting point: 81 to 84 °C

COc1ccc2c(c1)CCN(CCCSc1nnc(-c3ccccc3)n1C)C2 [Example 3, 2-{3-[(4-Methyl-5-phenyl-4H-1,2,4-triazol-3-yl)sulfanyl]propyl}-6-methoxy-1,2,3,4-tetrahydroisoquinoline]
Ki (human D3-receptor): 9.55 nM
Selectivity [1]: 78

C=C(CSc1nnc(-c2ccccc2)n1C)CN1CCc2ccc([N+](=O)[O-])cc2C1.Cl
melting point: 146 to 150 °C

CCN(CC)CCOc1cccc2c1CCN(CCCSc1nnc(-c3ccccc3)n1C)C2.Cl.Cl
melting point: 110 to 112 °C

Cn1c(SCCCN2CCc3cc(Cl)ccc3C2)nnc1-c1ccsc1 [Example 39, 6-Chloro-2-{3-[(4-methyl-5-thien-3-yl-4H-1,2,4-triazol-3-yl)-sulfanyl]propyl}-1,2,3,4-tetrahydroisoquinoline]
melting point: 99 to 100 °C

COC(=O)c1ccc2c(c1)CN(CCCSc1nnc(-c3ccccc3)n1C)CC2.O=C(O)C(=O)O
melting point: 160 to 163 °C

Cc1ncsc1-c1nnc(SCCCN2CCc3ccc(S(=O)(=O)Nc4ccccc4)cc3C2)n1C [Example 26, 2-(3-{[4-Methyl-5-(4-methyl-1,3-thiazol-5-yl)-4H-1,2,4-triazol-3-yl]sulfanyl}propyl)-N-phenyl-1,2,3,4-tetrahydroisoquinoline-7-sulfonamide]
melting point: 77 to 81 °C

Cc1ncsc1-c1nnc(SCCCN2CCc3ccc(S(=O)(=O)NCc4ccccc4)cc3C2)n1C [Example 9, N-Benzyl-2-(3-{[4-methyl-5-(4-methyl-1,3-thiazol-5-yl)-4H-1,2,4-triazol-3-yl]sulfanyl}propyl)-1,2,3,4-tetrahydroisoquinoline-7-sulfonamide]
melting point: 67 to 70 °C

Cn1c(SCCCN2CCc3cc(Cl)c(Cl)cc3C2)nnc1-c1ccccc1 [Example 28, 6,7-Dichloro-2-{3-[(4-methyl-5-phenyl-4H-1,2,4-triazol-3-yl)-sulfanyl]propyl}-1,2,3,4-tetrahydroisoquinoline]
melting point: 138 to 139 °C

Cn1c(SCCCN2CCc3ccc(NS(C)(=O)=O)cc3C2)nnc1-c1ccccc1 (as salt: HCl) [Example 84, N-[2-(3-{[4-Methyl-5-phenyl-4H-1,2,4-triazol-3-yl]sulfanyl}-propyl)-1,2,3,4-tetrahydroisoquinolin-7-yl]methansulfonamide]
melting point: 90 °C

COc1cccc2c1CCN(CCCSc1nnc(-c3ccccc3)n1C)C2 [Example 11, 5-Methoxy-2-{3-[(4-methyl-5-phenyl-4H-1,2,4-triazol-3-yl)-sulfanyl]propyl}-1,2,3,4-tetrahydroisoquinoline]
melting point: 73 to 75 °C

Cl.Cl.Cn1c(SCCCN2CCc3ccccc3C2)nnc1-c1cccnc1
melting point: 87 to 89 °C

Cn1c(SCCCN2CCc3ccc(S(=O)(=O)N4CCCC(C)(C)C4)cc3C2)nnc1-c1ccccc1 [Example 49, 7-[(3,3-Dimethylpiperidin-1-yl)sulfonyl]-2-{3-[(4-methyl-5-phenyl-4H-1,2,4-triazol-3-yl)sulfanyl]propyl}-1,2,3,4-tetrahydroisoquinoline]
melting point: 75 to 76 °C

Cl.Cn1c(SCCCN2CCc3ccc(C(F)(F)F)cc3C2)nnc1-c1ccccc1
melting point: 205 to 207 °C

Cl.Cn1c(SCCCN2CCc3cc(C(F)(F)F)ccc3C2)nnc1-c1ccsc1
melting point: 184 to 185 °C
